Assay results as given in ChEMBL document CHEMBL3112582, “Identification of novel 7-amino-5-methyl-1,6-naphthyridin-2(1H)-one derivatives as potent PI3K/mTOR dual inhibitors” (Bioorg Med Chem Lett, 2014).

What was measured:
[1] = target: Serine/threonine-protein kinase mTOR (Homo sapiens, UniProt P42345); assay: Inhibition of mTOR (unknown origin) after 40 mins by TR-FRET assay
[2] = target: Phosphatidylinositol 4,5-bisphosphate 3-kinase catalytic subunit alpha isoform (Homo sapiens, UniProt P42336); assay: Inhibition of PI3Kalpha (unknown origin) using PIP2/PS as substrate compound preincubated for 15 mins by luciferase-based luminescence assay
[3] = Half life in CD-1 mouse at 1.3 mg/kg, iv; type: ADME, organism-based; parameters: dose 1.3 mg/kg, route intravenous; conditions: in vivo
[4] = Half life in CD-1 mouse at 6.81 mg/kg, po; type: ADME, organism-based; parameters: dose 6.81 mg/kg, route oral; conditions: in vivo
[5] = AUC (infinity) in CD-1 mouse at 1.3 mg/kg, iv; type: ADME, organism-based; parameters: time infinity, dose 1.3 mg/kg, route intravenous; conditions: plasma
[6] = Clearance in CD-1 mouse at 1.3 mg/kg, iv; type: ADME, organism-based; parameters: dose 1.3 mg/kg, route intravenous; conditions: in vivo
SK-OV-3 = assay: Antiproliferative activity against human SKOV3 cells after 72 hrs by CellTiter-Glo assay; type: functional, cell-based; conditions: SK-OV-3, 72 h
[7] = AUC (infinity) in CD-1 mouse at 6.81 mg/kg, po; type: ADME, organism-based; parameters: time infinity, dose 6.81 mg/kg, route oral; conditions: plasma
[8] = Oral bioavailability in CD-1 mouse at 6.81 mg/kg; type: ADME, organism-based; conditions: in vivo

Chain of Phosphatidylinositol 4,5-bisphosphate 3-kinase catalytic subunit alpha isoform (P42336 whole entry, canonical isoform): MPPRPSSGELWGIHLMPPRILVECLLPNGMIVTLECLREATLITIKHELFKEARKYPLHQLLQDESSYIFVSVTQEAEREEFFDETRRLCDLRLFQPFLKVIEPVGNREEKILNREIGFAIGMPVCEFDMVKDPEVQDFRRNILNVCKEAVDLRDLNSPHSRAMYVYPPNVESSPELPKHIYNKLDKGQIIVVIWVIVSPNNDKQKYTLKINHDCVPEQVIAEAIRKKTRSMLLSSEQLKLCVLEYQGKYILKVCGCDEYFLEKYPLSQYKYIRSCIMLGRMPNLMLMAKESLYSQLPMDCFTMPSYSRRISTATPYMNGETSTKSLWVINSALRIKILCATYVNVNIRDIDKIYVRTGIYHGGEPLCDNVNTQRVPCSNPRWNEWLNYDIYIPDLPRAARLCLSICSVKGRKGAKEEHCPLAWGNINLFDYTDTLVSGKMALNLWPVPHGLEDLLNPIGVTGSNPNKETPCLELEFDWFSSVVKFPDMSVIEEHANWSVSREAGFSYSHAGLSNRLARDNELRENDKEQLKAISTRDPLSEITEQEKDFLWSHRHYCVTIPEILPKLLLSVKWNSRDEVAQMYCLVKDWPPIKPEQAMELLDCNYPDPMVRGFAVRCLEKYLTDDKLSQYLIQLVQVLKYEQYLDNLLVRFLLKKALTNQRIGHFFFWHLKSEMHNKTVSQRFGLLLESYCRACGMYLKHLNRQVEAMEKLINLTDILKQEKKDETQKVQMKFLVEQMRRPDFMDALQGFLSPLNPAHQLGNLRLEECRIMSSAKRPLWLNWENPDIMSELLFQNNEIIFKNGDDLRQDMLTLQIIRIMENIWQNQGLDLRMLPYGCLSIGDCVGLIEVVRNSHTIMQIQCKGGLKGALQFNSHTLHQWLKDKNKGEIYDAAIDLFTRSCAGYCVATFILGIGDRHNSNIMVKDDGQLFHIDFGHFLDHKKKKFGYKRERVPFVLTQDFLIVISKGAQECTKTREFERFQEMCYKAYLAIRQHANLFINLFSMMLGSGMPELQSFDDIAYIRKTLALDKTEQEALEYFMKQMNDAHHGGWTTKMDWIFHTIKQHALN

| IC50 [1] [nM] | IC50 [2] [nM] | SMILES | further results |
| --- | --- | --- | --- |
| 39 | 13.6 | COc1ccc(-c2cc3c(C)nc(N)cc3n(C3CCCC3)c2=O)cn1 |  |
| 33.9 | 12 | COc1ncc(-c2cc3c(C)nc(N)cc3n(C3CCCC3)c2=O)cc1NS(=O)(=O)c1ccc(F)cc1F |  |
|  | 37.3 | COc1ncc(-c2cc3c(C)nc(N)cc3n(C3CCCC3)c2=O)cc1NS(=O)(=O)c1ccccc1F |  |
| 35 | 72.6 | COc1ncc(-c2cc3c(C)nc(N)cc3n(C3CCCC3)c2=O)cc1NS(=O)(=O)c1ccc(F)cc1 |  |
| 8.49 | 31.2 | COc1ncc(-c2cc3c(C)nc(N)cc3n(C3CCCC3)c2=O)cc1NS(=O)(=O)c1ccc(Cl)s1 |  |
| 65.6 | 174 | COc1ccc(S(=O)(=O)Nc2cc(-c3cc4c(C)nc(N)cc4n(C4CCCC4)c3=O)cnc2OC)cc1 |  |
| 28.7 | 9.9 | COc1ncc(-c2cc3c(C)nc(N)cc3n([C@H]3CC[C@H](O)CC3)c2=O)cc1NS(=O)(=O)c1ccc(F)cc1F |  |
| 30.1 |  | COc1ccc(-c2cc3c(C)nc(N)nc3n(C3CCCC3)c2=O)cn1 |  |
| 18.4 | 35.6 | COc1ncc(-c2cnc3nc(N)nc(-c4ccncc4)c3c2)cc1NS(=O)(=O)c1ccc(F)cc1F |  |
| > 10000 | 5550 | COc1ccc(-c2cc3c(C)nc(N)nc3n2[C@H]2CC[C@H](OCCO)CC2)cn1 |  |
| 126 | 42.8 | COc1ncc(-c2cc3c(C)nc(N)cc3n(C(C)C)c2=O)cc1NS(=O)(=O)c1ccc(F)cc1F |  |
| 19.2 | 117 | COc1ncc(-c2cc3c(C)nc(N)cc3n(C3CCCC3)c2=O)cc1NS(=O)(=O)c1ccccc1 |  |
| 172 | 6 | Cc1nc(N)cc2c1cc(-c1cnc3[nH]ncc3c1)c(=O)n2C1CCCC1 |  |
| 36.5 | 6.45 | COc1ncc(-c2cc3c(C)nc(N)cc3n(C3CCCC3)c2=O)cn1 |  |
| 160 | 5.95 | COc1ncc(-c2cc3c(C)nc(N)cc3n(C3CCCC3)c2=O)cc1F |  |
| 82.1 | 15.2 | Cc1nc(N)cc2c1cc(-c1cnc3c(ccn3C)c1)c(=O)n2C1CCCC1 |  |
| 13.9 | 60.5 | COc1ncc(-c2cc3c(C)nc(N)cc3n(C3CCCC3)c2=O)cc1NS(=O)(=O)c1cccc(F)c1 |  |
| 62.6 | 23.1 | COc1ncc(-c2cc3c(C)nc(N)cc3n(C3CCCC3)c2=O)cc1NS(C)(=O)=O |  |

More lines, now with the values behind:

| SMILES | IC50 [1] [nM] | IC50 [2] [nM] | further results |
| --- | --- | --- | --- |
| COc1ncc(-c2cc3c(C)nc(N)cc3n(C3CCCC3)c2=O)cc1NS(=O)(=O)c1ccc(C(F)(F)F)cc1 | 78.2 | 175 |  |
| COc1ncc(-c2cc3c(C)nc(N)cc3n(C3CCCC3)c2=O)cc1NS(=O)(=O)c1ccc(C#N)cc1 | 24.7 | 14.3 |  |
| COc1ncc(-c2cc3c(C)nc(N)cc3n(C3CCCC3)c2=O)cc1NS(=O)(=O)C1CC1 | 141 | 69.1 |  |
| COc1ccc(-c2cc3c(C)nc(N)cc3n([C@H]3CC[C@H](OCCO)CC3)c2=O)cn1 | 11.2 | 35.4 |  |
| COc1ncc(-c2cnc3nc(N)nc(C)c3c2)cc1NS(=O)(=O)c1ccc(F)cc1F | 35.3 |  |  |
| Cc1nc(N)cc2c1cc(-c1cnc3[nH]cnc3c1)c(=O)n2C1CCCC1 | 13.9 | 2.9 |  |
| Cc1nc(N)cc2c1cc(-c1cnc3[nH]ccc3c1)c(=O)n2C1CCCC1 | 12.3 | 2.45 |  |
| COc1ncc(-c2cc3c(C)nc(N)cc3n([C@H]3CC[C@H](OCCO)CC3)c2=O)cc1NS(=O)(=O)c1ccc(F)cc1F | 8.55 | 2.42 | half-life [3]: 1.33 h; half-life [4]: 7.67 h; AUC(0-inf) [5]: 8090 ng·h/mL; clearance [6]: 2.87 mL/min/kg; IC50 (SK-OV-3): 2100 nM; AUC(0-inf) [7]: 3440 ng·h/mL; bioavailability [8]: 8.5% |
| COc1ncc(-c2ccc3nc(N)nc(C)c3c2)cc1NS(=O)(=O)c1ccc(F)cc1F | 2.32 | 3.43 |  |
| COc1ncc(-c2cc3c(C)nc(N)cc3n(C3CCOCC3)c2=O)cc1NS(=O)(=O)c1ccc(F)cc1F | 13.4 | 8.6 |  |
| COc1ccc(-c2cn([C@H]3CC[C@H](OCCO)CC3)c3nc(N)nc(C)c23)cn1 | > 10000 | > 10000 |  |
| COc1ncc(-c2cc3c(C)nc(N)cc3n(C3CC3)c2=O)cc1NS(=O)(=O)c1ccc(F)cc1F |  | 39.6 |  |
